Measurements as given in PubChem BioAssay AID1963825 (Molecular Pharmacology Branch, DTP, NCI, 2024).
“And” between values parts separate entries of the source, which are not always exact repeats. Equal entries are not always repeated.

Experiment: Anticancer human tumor 997537-175-T-J1-PDC patient-derived colon adenocarcinoma cell line growth inhibition [POLQ]
Settings: 997537-175-T-J1-PDC complex spheroid viability, combination with POLQ inhibitors; for viability, T/C: stronger effect = lower value
Experimental: Multicellular complex tumor spheroid response to Polymerase (POL) inhibitors (novobiocin, ART-558, RP6685) in combination with a variety of drugs and investigational agents in selected tumor cell lines
The POL inhibitors (novobiocin, ART-558, and RP6685) were evaluated both individually and in combination with standard of care and investigational anticancer small molecules within a complex spheroid model of solid tumors. . Complex spheroids include a stromal component modeled by human endothelial cells (HUVEC) and fibroblasts modeled by human mesenchymal stem cells (MSCs). The concentration ranges selected for each drug and investigational agent were based upon clinically achievable concentrations if the clinical Cmax of the agent was known.
Compounds. The drugs and investigational agents: novobiocin (NSC847541), ART-558 (NSC835418), RP-6685 (NSC848927), peposertib (NSC802822), ceralasertib (NSC780249), elimusertib (NSC800525), camonsertib (NSC841442), AZD-1390 (NSC803789), olaparib (NSC753686), talazoparib (NSC767125), rucaparib (NSC756644), sotorasib (NSC818433), MRTX-1133 (NSC836407), SN-38 (NSC673596), topotecan (NSC609699), epotoside (NSC141540), doxorubicin (NSC123127), gemcitabine (NSC613327), 5-fluorouracil (NSC19893), paclitaxel (NSC125973), vemurafenib (NSC761431), MSA-2 (NSC828583), SN-011 (NSC837082), adavosertib (NSC754352), prexasertib (NSC758257), carboplatin (NSC241240) and oxaliplatin (NSC266046), were obtained from the National Cancer Institute (NCI) Developmental Therapeutics Program Chemical Repository (21). The FDA-approved anticancer drug set is available from the Developmental Therapeutics Program at https://dtp.cancer.gov/organization/dscb/obtaining/. […] The stock solutions were prepared in dimethyl sulfoxide (DMSO, Sigma-Aldrich, St. Louis, MO, cat. D2650), except for the platinum compounds which were prepared in saline (Quality Biological, Gaithersburg, MD, cat. 114-055-101), at 800-fold the tested concentration and stored at -70 degrees C prior to their use. All drugs and investigational agents were tested over a range starting from a high concentration at or near the clinical Cmax and decreasing in half-log increments. If the clinical Cmax for an agent had not been determined, the highest concentration tested was 10 microM, except for SN-38, which was tested at a high concentration of 1 microM.
Cell Culture. All cells were maintained in an incubator at 37 degrees C and 5% CO2 with 95% humidity. The PDC lines were cultured according to standard operating procedures established by the NCI PDMR (https://pdmr.cancer.gov). Table 3 of the manuscript, lists the cell lines along with the number of the three cell types plated to form the mct-spheroids and media for tumor cell growth. After thawing, all PDC lines, except 997537-175-T-J1-PDC and 415267-285-R-J2-PDC, were cultured in Matrigel-coated flasks prepared with a working solution of 1X Ham's F-12 nutrient mix, without supplementation (Thermo Fisher Scientific, cat. 11765054), 100 U/mL penicillin-streptomycin (Thermo Fisher Scientific, cat. 15140122), and 2.5% Matrigel (Corning Inc., Corning, NY, cat. 354248) for the first three passages. The two PDC lines 997537-175-T-J1-PDC and 415267-285-R-J2-PDC were cultured on uncoated flasks. The 857933-349-R-J2-PDC line was cultured in 6C/Colon 1B media containing advanced DMEM/F-12 (Thermo Fisher Scientific, cat. 12634028), 10 mM HEPES (Thermo Fisher Scientific, cat. 15630080), 1X GlutaMAX supplement (Thermo Fisher Scientific, cat. 35050061), 0.1 mg/mL primocin (InvivoGen, San Diego, CA, cat. ant-pm-2), 10% defined fetal bovine serum, heat inactivated (HyClone Laboratories Inc., Logan, UT, cat. SH30070.03HI), 50% L-WRN conditioned media (ATCC, cat. CRL-3276), 1.25 mM N-Acetyl-L-cysteine (Sigma-Aldrich, cat. A9165), 10 mM nicotinamide (Sigma-Aldrich, cat. N0636), 1X B-27 supplement (Thermo Fisher Scientific, cat. 17504044), 1X N-2 supplement (Thermo Fisher Scientific, cat. […]
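Also: luminescence signal used as a surrogate for viable cells; spheroids exposed to drugs for seven days before readout.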

CC[C@@]1(O)C(=O)OCc2c1cc1n(c2=O)Cc2cc3c(CN(C)C)c(O)ccc3nc2-1
viability, T/C (compound 0.000316 µM): 100% and 93.8% and 93.3%
viability, T/C (compound 0.001 µM): 96.1% and 102% and 112%
viability, T/C (compound 0.00316 µM): 98.1% and 91.1% and 111%
viability, T/C (compound 0.01 µM): 105% and 101% and 97.3%
viability, T/C (compound 0.0316 µM): 94.5% and 75.5% and 93%
viability, T/C (compound 0.1 µM): 71.6% and 61.9% (2×)
IC50 (curve of compound): > 0.1 µM

O=C(c1cc(Cc2n[nH]c(=O)c3ccccc23)ccc1F)N1CCN(C(=O)C2CC2)CC1 + COC1C(OC(N)=O)C(O)C(Oc2ccc3c(O)c(NC(=O)c4ccc(O)c(CC=C(C)C)c4)c(=O)oc3c2C)OC1(C)C
IC50 (curve of first compound, second compound 0.0316 µM): > 10 µM
IC50 (curve of first compound, second compound 0.1 µM): > 10 µM
IC50 (curve of first compound, second compound 0.316 µM): > 10 µM
IC50 (curve of first compound, second compound 1 µM): > 10 µM
IC50 (curve of first compound, second compound 3.16 µM): > 10 µM
IC50 (curve of first compound, second compound 10 µM): > 10 µM
viability, T/C (second compound 0.0316 µM, first compound 0.0316 µM): 98.2%
viability, T/C (second compound 0.0316 µM, first compound 0.1 µM): 99.8%
viability, T/C (second compound 0.0316 µM, first compound 0.316 µM): 99.1%
viability, T/C (second compound 0.0316 µM, first compound 1 µM): 88.3%
viability, T/C (second compound 0.0316 µM, first compound 3.16 µM): 93%
viability, T/C (second compound 0.0316 µM, first compound 10 µM): 101%
viability, T/C (second compound 0.1 µM, first compound 0.0316 µM): 73.7%
viability, T/C (second compound 0.1 µM, first compound 0.1 µM): 91.7%
viability, T/C (second compound 0.1 µM, first compound 0.316 µM): 101%
viability, T/C (second compound 0.1 µM, first compound 1 µM): 106%
viability, T/C (second compound 0.1 µM, first compound 3.16 µM): 99%
viability, T/C (second compound 0.1 µM, first compound 10 µM): 101%
viability, T/C (second compound 0.316 µM, first compound 0.0316 µM): 105%
viability, T/C (second compound 0.316 µM, first compound 0.1 µM): 112%
viability, T/C (second compound 0.316 µM, first compound 0.316 µM): 98.9%
viability, T/C (second compound 0.316 µM, first compound 1 µM): 96.8%
viability, T/C (second compound 0.316 µM, first compound 3.16 µM): 100%
viability, T/C (second compound 0.316 µM, first compound 10 µM): 107%
viability, T/C (second compound 1 µM, first compound 0.0316 µM): 100%
viability, T/C (second compound 1 µM, first compound 0.1 µM): 98%
viability, T/C (second compound 1 µM, first compound 0.316 µM): 110%
viability, T/C (second compound 1 µM, first compound 1 µM): 92.7%
viability, T/C (second compound 1 µM, first compound 3.16 µM): 77.1%
viability, T/C (second compound 1 µM, first compound 10 µM): 96.3%
viability, T/C (second compound 3.16 µM, first compound 0.0316 µM): 101%
viability, T/C (second compound 3.16 µM, first compound 0.1 µM): 95.1%
viability, T/C (second compound 3.16 µM, first compound 0.316 µM): 94.7%
viability, T/C (second compound 3.16 µM, first compound 1 µM): 86%
viability, T/C (second compound 3.16 µM, first compound 3.16 µM): 95.8%
viability, T/C (second compound 3.16 µM, first compound 10 µM): 96.9%
viability, T/C (second compound 10 µM, first compound 0.0316 µM): 102%
viability, T/C (second compound 10 µM, first compound 0.1 µM): 78%
viability, T/C (second compound 10 µM, first compound 0.316 µM): 104%
viability, T/C (second compound 10 µM, first compound 1 µM): 98.5%
viability, T/C (second compound 10 µM, first compound 3.16 µM): 91.7%
viability, T/C (second compound 10 µM, first compound 10 µM): 107%

C#Cc1c(F)ccc2cc(O)cc(-c3ncc4c(N5CC6CCC(C5)N6)nc(OCC56CCCN5CC(F)C6)nc4c3F)c12 (stereo not drawn)
viability, T/C (compound 0.0316 µM): 105% and 99.2% and 101%
viability, T/C (compound 0.1 µM): 106% and 111% and 92.5%
viability, T/C (compound 0.316 µM): 92.2% and 97.5% and 113%
viability, T/C (compound 1 µM): 105% and 93.2% and 113%
viability, T/C (compound 3.16 µM): 110% and 93.3% and 94.4%
viability, T/C (compound 10 µM): 106% and 94.6% and 107%
IC50 (curve of compound): > 10 µM

CCc1c2c(nc3ccc(O)cc13)-c1cc3c(c(=O)n1C2)COC(=O)[C@]3(O)CC
viability, T/C (compound 0.00316 µM): 68.9% and 81% and 97.3%
viability, T/C (compound 0.01 µM): 63.4% and 64.7% and 67%
viability, T/C (compound 0.0316 µM): 35.3% and 40.2% and 35.2%
viability, T/C (compound 0.1 µM): 19.1% and 17.6% and 15.7%
viability, T/C (compound 0.316 µM): 5.98% and 6.37% and 8.27%
viability, T/C (compound 1 µM): 5.57% and 4.62% and 6.01%
IC50 (curve of compound): 0.0172 µM and 0.0199 µM and 0.0184 µM
